Tests used:
[1] = tested on: hepatitis B surface antigen (HBsAg); experiment: In vitro HBV activity test, hepatitis B virus S antigen by ELISA in HepG2.2.15 cells; assay type: cell-based
Experimental: (§1) 1. Cell Lines: HepG2.2.15 Cells
(§2) 2. Reagents: • Pancreatin (Invitrogen-25300062) • DPBS (Corning-21031CVR) • Dimethyl sulfoxide (Sigma-D2650-100 ML) • High-throughput DNA purification kit (QIAamp 96 DNA Blood Kit, Qiagen-51162) • Quantitative faststart universal probe reagent (FastStart Universal Probe Master, Roche-04914058001) • Hepatitis B surface antigen quantitative detection kit (Autobio, CL 0310) • 3. Consumables and Instruments • 96-well cell culture plate (Corning-3599) • CO2 incubator (HERA-CELL-240) • Optical sealing film (ABI-4311971) • Quantitative PCR 96-well plate (Applied Biosystems-4306737) • Fluorescence quantitative PCR instrument (Applied Biosystems-7500 real time PCR system)
(§3) 1. HepG2.2.15 cells (4×10^4 cells/well) were seeded to a 96-well plate and incubated overnight at 37° C., 5% CO2.
2. […]
6.3 Determination of the content of hepatitis B virus S antigen by ELISA involve respectively adding 50 μl of samples and standards to a reaction plate, and then adding 50 μL of enzyme conjugate to each well; shaking same to mix uniformly, and incubating at 37° C. for 60 minutes; washing the plate 5 times with a washing solution, adding 50 μL of luminescent substrate to each well, mixing uniformly, and reacting same in the dark at room temperature for 10 minutes; and finally, detecting chemiluminescence intensity with a microplate reader. […]

HBV-DNA = experiment: In vitro HBV activity test, HBV-DNA by quantitative PCR in HepG2.2.15 cells; assay type: cell-based, Hepatitis B Virus
Experimental: as §1, §2, §3
2. On day 2, the compound was diluted to a total of 8 concentrations, with a 3-fold gradient dilution. The compounds at different concentrations were added to culture wells in duplicate. The final concentration of dimethyl sulfoxide in the culture medium was 0.5%. 10 μM ETV was used as 100% inhibition control; 0.5% dimethyl sulfoxide was used as a 0% inhibition control.
3. On day 5, the culture medium was replaced with a fresh culture medium containing the compound.
4. […]

[2] = Physical stability test of crystal form A as a solid under various temperature, humidity and light conditions; assay type: physicochemical
Experimental: 4 samples of crystal form A of the compound of formula (I) were weighed in parallel (about 100 mg each), placed on the bottom of glass sample bottles, and spread out as a thin layer. The bottles were sealed with aluminum foil paper, and some small holes were made on the aluminum foil paper to ensure that the samples could fully contact with ambient air. The prepared 4 samples were placed under a relative humidity of 25° C./92.5%, 60° C., 40° C./75% and light conditions, respectively, to investigate the physical stability of the samples on day 10. In addition, about 100 mg of crystal form A solid of the compound of formula (I) was separately weighed, placed at the bottom of a glass sample bottle, sealed with a screw cap and stored at −20° C. for use as a control sample. On day 10, all samples were taken out, returned to room temperature, and observed for appearance changes, and the crystal forms of the samples were detected by XRPD. By comparing an accelerated sample with the control sample, the physical stability of crystal form A of the compound of formula (I), as a solid, was determined.

[3] = Stability test of crystal form A as a solid under high temperature and high humidity conditions; assay type: physicochemical; settings: 40° C./75% humidity
Experimental: 2 samples of crystal form A of the compound of formula (I) were weighed in parallel (about 100 mg each), placed on the bottom of glass sample bottles, and spread out as a thin layer. The bottles were sealed with aluminum foil paper, and some small holes were made on the aluminum foil paper to ensure that the samples could fully contact with ambient air. The bottles were placed in a constant temperature and humidity chamber at 40° C./75% humidity. The samples placed under the above-mentioned conditions were sampled and tested on day 5 and day 10. The test results were compared with initial test results on day 0.

hepatitis B = settings: woodchuck model, used as a single drug; cited from earlier work
[4] = 25° C./92.5% relative humidity (open), Day 10
[5] = 40° C./75% relative humidity (open), Day 10
[6] = Day 0 (−20° C. storage with seal) (control sample), time point Day 10

COCCCOc1cc2c(cc1Cl)-c1cc(=O)c(C(=O)O)cn1[C@H](c1cccs1)O2 [Compound of formula (I)]
inhibition of hepatitis B surface antigen (HBsAg) (experimental conclusion) ([1]; HepG2.2.15 cells): effectively inhibit
EC50 ([1]; Hepatitis B virus, HepG2.2.15, 192 h, read-out: HBsAg EC50): 1.54 nM
inhibition of HBV-DNA (experimental conclusion) (HBV-DNA): effectively inhibit
EC50 (HBV-DNA; Hepatitis B virus, 192 h, culture medium collected on day 8): 1.13 nM

COCCCOc1cc2c(cc1Cl)-c1cc(=O)c(C(=O)O)cn1[C@H](c1cccs1)O2 [crystal form A]
Character [2, 4]: White powder
Polymorph [2, 4]: Polymorph A
Purity [2, 4]: 99.80%
Character [2, 5]: White powder
Polymorph [2, 5]: Polymorph A
Purity [2, 5]: 99.79%
Character ([2]; 60° C. (open), Day 10): White powder
Polymorph ([2]; 60° C. (open), Day 10): Polymorph A
Purity ([2]; 60° C. (open), Day 10): 99.75%
Character [2, 6]: White powder
Polymorph [2, 6]: Polymorph A
Purity [2, 6]: 99.79%
Character ([2]; Light, Day 10): White powder
Polymorph ([2]; Light, Day 10): Polymorph A
Purity ([2]; Light, Day 10): 99.71%
stability (experimental conclusion) ([2]; solid, various temperature, humidity and light conditions, day 10): good stability
Appearance ([3]; day 0 (initial)): White powder
Polymorph ([3]; day 0 (initial)): Polymorph A
Purity ([3]; day 0 (initial)): 99.79%
Total impurities ([3]; day 0 (initial)): 0.21%
Appearance ([3]; day 5): White powder
Polymorph ([3]; day 5): Polymorph A
Purity ([3]; day 5): 99.79%
Total impurities ([3]; day 5): 0.21%
Appearance ([3]; day 10): White powder
Polymorph ([3]; day 10): Polymorph A
Purity ([3]; day 10): 99.79%
Total impurities ([3]; day 10): 0.21%
stability (experimental conclusion) ([3]; solid, up to day 10): good stability

COCCCOc1cc2c(cc1OC)-c1cc(=O)c(C(=O)O)cn1[C@H](C(C)C)C2 [RG7834]
reduction of HBV-DNA (hepatitis B): 1.7 Log
reduction of surface antigens (hepatitis B): 2.57 Log
